This passage reports TGI and GI50 results from PubChem BioAssay (NCI).

Structures are written as SMILES. Values joined by “and” are separate entries in the source; they are usually repeats but may differ in a detail not shown here. Equal values may be shown once.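 Growth conditions: 96-well plates. Treatment: test compound, 48 hours, 5 concentrations. Analysis: linear interpolation between bracketing concentrations; unreached endpoints set to highest concentration. GI50 is the concentration that inhibits growth by half. The concentration for full growth arrest is given as TGI.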

Some test systems named below: A498 renal; A549 NSCLC; EKVX NSCLC; HCT-15 colon; NCI-H226 lung; OVCAR-3 ovarian; RPMI-8226 leukemia; SF-295 CNS; SK-MEL-2 melanoma; TK-10 renal.
Common to all, as to assay: growth of human tumour cells (NCI), 48 h

In the case of `O=C1CCCc2cc3c(cc21)CC1(Cc2ccccc2C1)C3`, the TGI is 67 µM in the test on A498 renal; 43.3 µM with A549 NSCLC; > 100 µM in the test on EKVX NSCLC; 24.4 µM in the test with HCT-15 colon; 12.8 µM in the test on NCI-H226 lung; 6.1 µM with OVCAR-3 ovarian. The TGI in the test on RPMI-8226 leukemia is 25.7 µM; in the test on SF-295 CNS it was 21.5 µM; in the test with SK-MEL-2 melanoma, > 100 µM; with TK-10 renal it was > 100 µM.
For `O=c1[nH]c(Nc2cccc(CC(F)(F)F)c2)nc2nc[nH]c12`, the TGI in the test with A498 renal, with A549 NSCLC, in the test with EKVX NSCLC, with HCT-15 colon, in the test with NCI-H226 lung and in the test on OVCAR-3 ovarian was > 100 µM throughout. Besides, the TGI in the test on RPMI-8226 leukemia, in the test on SF-295 CNS, in the test on SK-MEL-2 melanoma and in the test on TK-10 renal was > 100 µM throughout.
Turning to `C=CC1(C)CCC2C(=CCC3C2(C)CC(O)C(O)C3(C)COC2OC(C(=O)O)C(O)C(O)C2O)C1` (stereo not given) (tested in a mixture with another compound), the TGI in the test with A498 renal, in the test with A549 NSCLC, in the test on EKVX NSCLC, in the test with HCT-15 colon, in the test with NCI-H226 lung and in the test on OVCAR-3 ovarian was > 100 µM each time. For the same compound, the TGI in the test with RPMI-8226 leukemia, in the test with SF-295 CNS, with SK-MEL-2 melanoma and with TK-10 renal was > 100 µM in each case.
On to `Cc1cc(Cc2cc(C)c(N)cc2N)c(N)cc1N`, for which the TGI in the test with A498 renal, in the test on A549 NSCLC, in the test on EKVX NSCLC, in the test on HCT-15 colon, with NCI-H226 lung and in the test on OVCAR-3 ovarian was > 100 µM in each case. For the same compound, the TGI in the test with RPMI-8226 leukemia, in the test with SF-295 CNS, in the test with SK-MEL-2 melanoma and in the test with TK-10 renal was > 100 µM each time.
For the compound `C=C1C(=O)O[C@@H]2C(=O)[C@@H](C)CCC/C(C)=C/CC[C@@]3(C)O[C@@H]3C[C@@H]12`, the TGI was > 100 µM in the test with A498 renal; > 100 µM in the test with A549 NSCLC; > 100 µM in the test with EKVX NSCLC; 44 µM in the test on HCT-15 colon; > 100 µM with NCI-H226 lung; > 100 µM in the test with OVCAR-3 ovarian. Besides, the TGI is 54.1 µM in the test on RPMI-8226 leukemia, > 100 µM with SF-295 CNS, > 100 µM in the test with SK-MEL-2 melanoma and 81.6 µM in the test on TK-10 renal.
With `CN1CCc2cc(N)cc3c2C1Cc1ccc(O)c(O)c1-3` (stereo not given), the TGI with A498 renal was > 100 µM; with A549 NSCLC, > 100 µM; with EKVX NSCLC, > 100 µM; in the test with HCT-15 colon it was > 100 µM; with NCI-H226 lung, 82.8 µM; with OVCAR-3 ovarian, 72.8 µM. Besides, the TGI in the test on RPMI-8226 leukemia is 66.4 µM; in the test with SF-295 CNS, > 100 µM; in the test on SK-MEL-2 melanoma, > 100 µM; with TK-10 renal, > 100 µM.
For the compound `O=C(NC(=O)c1ccccc1[N+](=O)[O-])Nc1ccc(Oc2ncc(Br)cn2)c(Cl)c1`, the TGI in the test on A498 renal was 0.052 µM; in the test with A549 NSCLC, > 100 µM; in the test with HCT-15 colon, > 42.7 µM; with NCI-H226 lung, 0.0292 µM and < 0.0313 µM; in the test with OVCAR-3 ovarian it was 0.0767 µM; in the test on SF-295 CNS, 0.0465 µM. In addition, the GI50 in the test on A549 NSCLC is < 0.0248 µM; in the test on EKVX NSCLC, 0.868 µM; in the test on HCT-15 colon, < 0.0258 µM; with NCI-H226 lung, < 0.0175 µM; in the test with OVCAR-3 ovarian, < 0.0158 µM; in the test on RPMI-8226 leukemia, < 0.02 µM. Further, the GI50 was < 0.0184 µM in the test with SF-295 CNS, 0.321 µM with SK-MEL-2 melanoma and 10.5 µM in the test on TK-10 renal.
For the compound `O=C1C=CC(=O)c2c1ccc1c3ccccc3n(CCCCCCCCCCCCn3c4ccccc4c4ccc5c(c43)C(=O)C=CC5=O)c21`, the TGI in the test with A498 renal, in the test on A549 NSCLC, with EKVX NSCLC, with HCT-15 colon, in the test with NCI-H226 lung and in the test on OVCAR-3 ovarian was > 100 µM each time. The TGI with RPMI-8226 leukemia, in the test on SF-295 CNS, in the test with SK-MEL-2 melanoma and in the test with TK-10 renal was > 100 µM throughout.
As for `C[C@]12CCC(O)CC1=CC[C@@H]1[C@@H]2CC[C@]2(C)C(=O)[C@H](n3ccnc3)C[C@@H]12` (stereo not given in full), the TGI in the test with A498 renal, in the test with A549 NSCLC, in the test with EKVX NSCLC, with HCT-15 colon, in the test on NCI-H226 lung and in the test with OVCAR-3 ovarian was > 100 µM in each case. In addition, the TGI in the test with RPMI-8226 leukemia, in the test on SF-295 CNS, with SK-MEL-2 melanoma and in the test on TK-10 renal was > 100 µM each time.
Regarding `COc1ccc(N/N=C2\CCOc3ccc(C)cc3C2=O)cc1`, the TGI with A498 renal is > 100 µM; in the test with A549 NSCLC, > 100 µM; in the test with EKVX NSCLC, > 100 µM; with HCT-15 colon it was 48.7 µM; with NCI-H226 lung it was 90.7 µM; with OVCAR-3 ovarian it was > 100 µM. In addition, the TGI in the test on RPMI-8226 leukemia was 84.1 µM; with SF-295 CNS, > 100 µM; with SK-MEL-2 melanoma, 46 µM; with TK-10 renal it was > 100 µM.
